Experimental data published in patent US11458144B1, “Methods for using 5-HMF analogs with increased solubility to inhibit or reverse RBC sickling” (King Abdulaziz University, priority 2021, dated 2022).
Read-outs that look alike come from different tables or passages of the source. Each block holds one compound with its values, some of them ahead of it.

Columns and labels:
[1] = system: SS RBCs; test: Antisickling study (RBC morphology) in SS blood under hypoxia; assay type: cell-based, human; conditions: 2 mM, SS blood hematocrit 20%, 2.5% O2, 37° C.; for inhibition at 2000 µM: Homo sapiens, read-out: % Sickling inhibition
Experimental: (§1) The effect of the MMA compounds and positive control 5-HMF on RBC sickling, Hb modification, and Hb oxygen equilibrium was studied utilizing SS blood following previous procedure.^[27]
For the antisickling study, SS blood (hematocrit 20%) were incubated under air in the absence or presence of all the MMA compounds (0.5 mM, 1 mM and 2 mM) at 37° C. for 1 h, followed by incubating the mixture under hypoxic conditions (2.5% O2) at 37° C. for 2 h. Aliquots with fixed 2% glutaraldehyde solution and under anaerobic condition were subjected to microscopic morphological analysis.^[11]
(§2) Using homozygous sickle (SS) blood from patients, the MMA compounds (MMA502, MMA503, MMA504, MMA505, and MMA509 were tested with 5-HMF as control for Hb adduct formation, effect on Hb affinity for oxygen and corresponding antisickling activities (RBC morphology study) using previously published protocols.^14,15

[2] = target: T1, Hb (Homo sapiens, UniProt P68871+P69905, E7V); test: Oxygen equilibrium study (P50 shift) of lysates from SS blood, Hemox Analyzer; assay type: cell-based; conditions: SS RBCs
T1 construct: Using homozygous sickle (SS) blood from patients; endogenous in cells; host or cells: red blood cells of homozygous SS patient blood (hematocrit 20%); clarified lysates measured after incubation
Experimental: as §1
For the oxygen equilibrium study, about 100 μL aliquot of clarified lysate of residual samples from the above antisickling study was added to 4 mL of 0.1 M potassium phosphate buffer, pH 7.0, in cuvettes and subjected to hemoximetry analysis using Hemox™ Analyzer (TCS Scientific Corp., New Hope, Pa.) to assess P50 shift, which is the partial pressure of oxygen (PO2) at which 50% of Hb is saturated with oxygen (SO2). Degree of Hb O2 affinity shift (ΔP50) was expressed as percentage fractions of control DMSO-treated samples.
as §2

[3] = target: T1, Hb; test: Hb adduct formation (Hb modification) by cation-exchange HPLC, SS blood lysates; assay type: binding; conditions: SS RBCs
Excerpt: as §1
The Hb adduct formation study also used clarified lysates that were subjected to a cation-exchange HPLC (Hitachi D-7000 Series, Hitachi Instruments, Inc., San Jose, Calif.), and a weak cation-exchange column (Poly CAT A: 30 mm×4.6 mm, Poly LC, Inc., Columbia, Md.).
as §2

[4] = target: T2, HbA (Homo sapiens, UniProt P68871+P69905); test: Time-dependent Hb oxygen equilibrium study in normal whole blood; assay type: cell-based; conditions: 2 mM, 20% hematocrit
T2 construct: time-dependent P50-shift of HbA in normal blood (20% hematocrit); endogenous in cells; host or cells: red blood cells in normal whole blood of adult donors (hematocrit 20%)
Experimental: The time-dependent effect of the MMA compounds and positive control 5-HMF on Hb oxygen affinity was studied using normal blood following previous procedure.^[15] Briefly, normal blood samples (hematocrit 20%) were incubated with the compounds at 37° C. for 24 h. Aliquots were taken at various time points and incubated in IL 237 tonometers (Instrumentation Laboratories, Inc. Lexington, Mass.) for 10 minutes at 37° C., and allowed to equilibrate at oxygen tensions 6, 20, and 40 mmHg. The samples were then aspirated into an ABL 700 Automated Blood Gas Analyzer (Radiometer) to determine the pH, partial pressure of CO2 (pCO2), partial pressure of oxygen (pO2), and Hb oxygen saturation values (SO2). The measured values of pO2 (mmHg) and SO2 at each pO2 value were then subjected to a non-linear regression analysis using the program Scientist (Micromath, Salt Lake City, Utah) to estimate P50 as previously reported.^[28]
5-HMF has a short half-life and poor oral bioavailability due to this metabolic instability, which in part prevented its development for chronic use. Nonetheless, this metabolic instability could be advantageous for parenteral formulation for acute use. […] Briefly, blood samples (hematocrit 20%) were incubated with the compounds at 37° C. for 24 h, and aliquots were taken at the various time points and used to determine the PO2 and SO2 using ABL 800 Automated Blood Gas Analyzer (Radiometer), and to estimate P50 as previously reported.^[10]
The study confirmed the trend in the biological potencies observed with SS blood.

[5] = target: T3, CYP1A2 (Homo sapiens, UniProt P05177); test: In vitro CYP inhibition, pooled human liver microsomes; assay type: in vitro ADME; conditions: substrate Tacrine
T3 construct: using pooled human liver microsomes as previously published; from tissue; host or cells: pooled human liver microsomes
T3 sequence (P05177 1-516): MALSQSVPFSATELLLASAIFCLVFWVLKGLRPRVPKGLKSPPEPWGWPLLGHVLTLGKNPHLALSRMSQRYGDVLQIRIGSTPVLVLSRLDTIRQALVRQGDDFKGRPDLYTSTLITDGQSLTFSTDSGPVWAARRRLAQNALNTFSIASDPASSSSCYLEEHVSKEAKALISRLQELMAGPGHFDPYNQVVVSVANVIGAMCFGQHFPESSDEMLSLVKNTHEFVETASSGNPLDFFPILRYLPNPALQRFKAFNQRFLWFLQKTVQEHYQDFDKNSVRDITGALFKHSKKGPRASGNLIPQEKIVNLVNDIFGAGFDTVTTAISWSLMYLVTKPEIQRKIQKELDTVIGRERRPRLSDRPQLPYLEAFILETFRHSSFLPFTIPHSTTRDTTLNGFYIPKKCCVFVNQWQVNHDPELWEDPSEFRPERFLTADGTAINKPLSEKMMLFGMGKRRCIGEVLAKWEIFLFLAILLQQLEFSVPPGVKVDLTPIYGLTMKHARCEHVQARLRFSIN
Experimental: (§3) The probe substrates include tacrine (CYP1A2), amodiaquine (CYP2C8), tolbutamide (CYP2C9), mephenytoin (CYP2C19), dextromethorphan (CYP2D6), midazolam (CYP3A4), testosterone (CYP3A4), and bupropion (CYP2B6). […] The assays were performed in duplicate in 96-well plates at 37° C. for 10-60 minutes. The reaction was terminated with addition of methanol, followed by incubation at 4° C. for 10 min and centrifuged at 4° C. for 10 min.

[6] = target: T4, CYP2C8 (Homo sapiens, UniProt P10632); test: as above; assay type: in vitro ADME; conditions: substrate Amodiaquine
T4 construct: using pooled human liver microsomes as previously published; from tissue; host or cells: pooled human liver microsomes
T4 sequence (P10632 1-490): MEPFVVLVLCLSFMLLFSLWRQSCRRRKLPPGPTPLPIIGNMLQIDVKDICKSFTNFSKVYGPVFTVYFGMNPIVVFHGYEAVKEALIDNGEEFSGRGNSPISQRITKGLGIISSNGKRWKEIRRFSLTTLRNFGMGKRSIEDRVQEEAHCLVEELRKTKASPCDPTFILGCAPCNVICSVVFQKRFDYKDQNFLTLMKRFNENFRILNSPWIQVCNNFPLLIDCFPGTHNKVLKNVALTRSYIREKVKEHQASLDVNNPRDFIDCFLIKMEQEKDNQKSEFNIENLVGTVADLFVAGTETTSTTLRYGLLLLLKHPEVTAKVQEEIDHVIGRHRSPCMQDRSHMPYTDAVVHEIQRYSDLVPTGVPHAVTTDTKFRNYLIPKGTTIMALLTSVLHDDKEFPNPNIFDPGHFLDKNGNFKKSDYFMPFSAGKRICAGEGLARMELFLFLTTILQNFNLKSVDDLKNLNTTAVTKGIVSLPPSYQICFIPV
Experimental: as §3

[7] = target: T5, CYP2B6 (Homo sapiens, UniProt P20813); test: as above
T5 sequence (P20813 1-491): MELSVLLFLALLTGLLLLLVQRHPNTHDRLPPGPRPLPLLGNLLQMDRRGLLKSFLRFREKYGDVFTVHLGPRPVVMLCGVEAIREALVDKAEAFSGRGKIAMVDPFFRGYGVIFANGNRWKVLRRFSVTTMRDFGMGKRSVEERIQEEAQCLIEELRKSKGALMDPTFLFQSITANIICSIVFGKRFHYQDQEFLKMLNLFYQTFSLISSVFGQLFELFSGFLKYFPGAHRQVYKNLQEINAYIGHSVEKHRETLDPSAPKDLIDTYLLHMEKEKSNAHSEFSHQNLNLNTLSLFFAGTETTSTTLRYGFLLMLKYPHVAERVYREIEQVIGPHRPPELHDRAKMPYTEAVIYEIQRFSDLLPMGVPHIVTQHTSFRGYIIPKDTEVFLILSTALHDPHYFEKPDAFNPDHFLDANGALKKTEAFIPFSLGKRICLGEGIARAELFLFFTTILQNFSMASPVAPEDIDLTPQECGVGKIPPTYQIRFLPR
Experimental: as §3

[8] = target: CYP2C19 (Homo sapiens, UniProt P33261); test: as above
Experimental: as §3

[9] = target: CYP2C9 (Homo sapiens, UniProt P11712); test: as above
Experimental: as §3

[10] = target: CYP2D6 (Homo sapiens, UniProt P10635); test: as above
Experimental: as §3

[11] = target: CYP3A4 (Homo sapiens, UniProt P08684); test: as above
Experimental: as §3

[12] = system: human cytochrome P450 (CYP) enzymes; test: In vitro CYP inhibition, panel of seven enzymes (overall statement); assay type: in vitro ADME; conditions: 0.1 to 100 μM; pooled human liver microsomes
Experimental: as §3

Compound: O=Cc1ccc(CO)o1 [Compound 5-HMF, 5-hydroxymethylfurfural, reference compound]
% Sickling inhibition [1]: 21.4 ± 0.0%
inhibition at 2000 µM [1]: 21%
% Hb-O2 affinity (P50 shift vs DMSO control) ([2]; 2 mM): 27%
% Hb-O2 affinity (P50 shift vs DMSO control) ([2]; 2 mM, listed as 5HMF): 27.2 ± 4.9%
% Hb-modification (adduct formation) ([3]; 2 mM): 33%
% Hb-modification (adduct formation) ([3]; 2 mM, listed as 5HMF): 33.8 ± 11.7%
%P50 shift ([4]; at 3 hours): 35%
IC50 [5]: > 100 µM
IC50 [6]: > 100 µM
IC50 [7]: > 100 µM
IC50 [8]: > 100 µM
IC50 [9]: > 100 µM
IC50 [10]: > 100 µM
IC50 [11]: > 100 µM
IC50 ([11]; human, microsomes, pH 7.4): > 100 µM
inhibition of liver CYP isozymes [12]: no inhibition

% Hb-O2 affinity (P50 shift vs DMSO control) ([2]; 0.5 mM): 4.4 ± 5.1%
% Hb-O2 affinity (P50 shift vs DMSO control) ([2]; 1 mM): 5.3 ± 1.5%
% Hb-O2 affinity (P50 shift vs DMSO control) ([2]; 2 mM, listed as 504): 2.7 ± 1.2%
% Hb-O2 affinity (P50 shift vs DMSO control) ([2]; 2 mM, listed as MMA504): 3%
% Hb-modification (adduct formation) ([3]; 0.5 mM): 0.0 ± 0.0%
% Hb-modification (adduct formation) ([3]; 1 mM): 0.0 ± 1.0%
% Hb-modification (adduct formation) ([3]; 2 mM, listed as 504): 0.4 ± 0.8%
% Hb-modification (adduct formation) ([3]; 2 mM, listed as MMA504): < 1%
Compound: O=Cc1ccc(N2CCC(O)CC2)o1 [MMA-504, 5-(4-hydroxypiperidin-1-yl)furan-2-carbaldehyde]
inhibition at 2000 µM [1]: 27%

% Hb-O2 affinity (P50 shift vs DMSO control) ([2]; 0.5 mM): 16.3 ± 1.5%
% Hb-O2 affinity (P50 shift vs DMSO control) ([2]; 1 mM): 34.5 ± 14.4%
% Hb-O2 affinity (P50 shift vs DMSO control) ([2]; 2 mM, listed as 509): 58.5 ± 15.3%
% Hb-O2 affinity (P50 shift vs DMSO control) ([2]; 2 mM, listed as MMA509): 59%
% Hb-modification (adduct formation) ([3]; 0.5 mM): 16.2 ± 0.0%
% Hb-modification (adduct formation) ([3]; 1 mM): 27.6 ± 3.6%
% Hb-modification (adduct formation) ([3]; 2 mM, listed as 509): 53.3 ± 3.9%
% Hb-modification (adduct formation) ([3]; 2 mM, listed as MMA509): 53%
%P50 shift ([4]; at 1.5 hours): 60%
inhibition of liver CYP isozymes [12]: no inhibition
Compound: O=Cc1ccc(C2CCCCO2)o1 (centres unmarked) [MMA-509]
